Legend:
[1] = Volume of distribution in Sprague-Dawley rat at 1 mg/kg, iv by LC-MS/MS and HPLC method; format: ADME, organism-based; design: dose 1 mg/kg, route intravenous; conditions: in vivo
[2] = Oral bioavailability in Sprague-Dawley rat at 2 mg/kg by LC-MS/MS and HPLC method; format: ADME, organism-based; conditions: in vivo
LIM domain kinase 1 [3] = target: T1, LIM domain kinase 1 (Homo sapiens, UniProt P53667)
LIM domain kinase 1 [4] = target: LIM domain kinase 1 (Rattus norvegicus, UniProt P53669); assay: Inhibition of Limk1 in rat A7r5 cells assessed as reduction in cofilin phosphorylation by Western blot method; format: cell-based
Chain of LIM domain kinase 1 (Rattus norvegicus, UniProt P53669) (P53669 whole entry, the tested form may be a part): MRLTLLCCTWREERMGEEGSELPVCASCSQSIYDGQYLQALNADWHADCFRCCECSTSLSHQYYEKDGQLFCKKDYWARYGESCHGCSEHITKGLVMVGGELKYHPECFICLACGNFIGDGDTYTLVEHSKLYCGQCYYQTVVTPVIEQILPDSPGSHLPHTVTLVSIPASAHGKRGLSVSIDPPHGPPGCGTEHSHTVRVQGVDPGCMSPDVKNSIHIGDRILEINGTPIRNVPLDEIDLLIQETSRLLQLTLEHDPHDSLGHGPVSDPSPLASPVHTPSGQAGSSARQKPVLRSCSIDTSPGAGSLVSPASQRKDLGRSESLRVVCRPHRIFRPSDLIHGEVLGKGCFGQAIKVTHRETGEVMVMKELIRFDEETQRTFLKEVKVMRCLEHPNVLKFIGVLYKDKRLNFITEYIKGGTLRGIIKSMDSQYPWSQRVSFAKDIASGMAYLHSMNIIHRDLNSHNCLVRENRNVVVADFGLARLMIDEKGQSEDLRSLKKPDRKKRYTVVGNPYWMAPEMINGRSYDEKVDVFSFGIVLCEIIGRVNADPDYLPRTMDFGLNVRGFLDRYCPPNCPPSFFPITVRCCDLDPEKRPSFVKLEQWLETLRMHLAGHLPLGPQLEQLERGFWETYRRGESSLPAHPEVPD

Liver microsome [5] = assay: Half life in rat liver microsomes; format: ADME
Liver microsome [6] = assay: Half life in human liver microsomes; format: ADME
[7] = target: Rho-associated protein kinase 2 (Homo sapiens, UniProt O75116)
Chain of Rho-associated protein kinase 2 (O75116 whole entry): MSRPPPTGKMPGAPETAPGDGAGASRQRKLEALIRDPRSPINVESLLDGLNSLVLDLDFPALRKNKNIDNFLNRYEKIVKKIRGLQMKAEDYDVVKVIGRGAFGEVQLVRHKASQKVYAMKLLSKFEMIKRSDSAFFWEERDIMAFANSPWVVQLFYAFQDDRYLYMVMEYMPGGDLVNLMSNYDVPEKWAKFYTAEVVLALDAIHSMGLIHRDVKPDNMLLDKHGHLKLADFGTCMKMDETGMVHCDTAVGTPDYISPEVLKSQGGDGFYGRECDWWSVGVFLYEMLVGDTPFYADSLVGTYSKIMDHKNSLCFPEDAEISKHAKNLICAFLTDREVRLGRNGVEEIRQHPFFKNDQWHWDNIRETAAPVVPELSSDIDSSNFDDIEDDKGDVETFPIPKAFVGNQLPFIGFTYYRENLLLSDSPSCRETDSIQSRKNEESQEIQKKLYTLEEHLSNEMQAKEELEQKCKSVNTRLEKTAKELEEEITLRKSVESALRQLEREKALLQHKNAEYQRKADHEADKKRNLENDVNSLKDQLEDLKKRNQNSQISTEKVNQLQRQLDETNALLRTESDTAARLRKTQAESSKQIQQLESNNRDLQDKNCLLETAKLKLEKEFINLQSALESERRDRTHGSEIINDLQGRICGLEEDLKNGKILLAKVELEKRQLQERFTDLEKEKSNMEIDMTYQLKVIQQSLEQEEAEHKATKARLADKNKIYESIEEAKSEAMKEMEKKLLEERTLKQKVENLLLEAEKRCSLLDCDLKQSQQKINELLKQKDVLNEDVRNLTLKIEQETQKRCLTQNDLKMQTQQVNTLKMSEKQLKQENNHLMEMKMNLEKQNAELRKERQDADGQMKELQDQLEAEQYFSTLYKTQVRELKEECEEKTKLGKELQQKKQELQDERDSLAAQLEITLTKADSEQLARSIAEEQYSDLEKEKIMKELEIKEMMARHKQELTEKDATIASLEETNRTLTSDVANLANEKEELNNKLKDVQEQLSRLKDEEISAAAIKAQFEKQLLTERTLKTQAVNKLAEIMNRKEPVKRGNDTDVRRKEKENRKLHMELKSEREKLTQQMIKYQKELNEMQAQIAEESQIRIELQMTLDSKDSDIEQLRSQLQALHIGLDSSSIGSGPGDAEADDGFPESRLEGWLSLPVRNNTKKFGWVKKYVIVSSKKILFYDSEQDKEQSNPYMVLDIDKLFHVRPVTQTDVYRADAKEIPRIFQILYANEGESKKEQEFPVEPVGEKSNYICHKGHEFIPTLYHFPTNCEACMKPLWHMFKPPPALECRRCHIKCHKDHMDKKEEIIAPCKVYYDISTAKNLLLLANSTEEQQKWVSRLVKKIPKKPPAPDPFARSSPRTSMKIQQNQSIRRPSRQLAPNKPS

PC-3 [8] = assay: cells; conditions: Homo sapiens, PC-3, 48 h, read-out: INH
PC-3 [9] = assay: cells; conditions: Homo sapiens, PC-3, 24 h, read-out: INH
PC-3 [10] = assay: cells; conditions: Homo sapiens, PC-3, 24 h, read-out: INH; remark: listed apart in the source
CYP1A2 = target: T2, CYP1A2 (Homo sapiens, UniProt P05177); assay: Inhibition of CYP1A2 (unknown origin) assessed as reduction in phenaceten demethylation to acetaminophen at 10 uM; format: ADME
T2 sequence (P05177 whole entry): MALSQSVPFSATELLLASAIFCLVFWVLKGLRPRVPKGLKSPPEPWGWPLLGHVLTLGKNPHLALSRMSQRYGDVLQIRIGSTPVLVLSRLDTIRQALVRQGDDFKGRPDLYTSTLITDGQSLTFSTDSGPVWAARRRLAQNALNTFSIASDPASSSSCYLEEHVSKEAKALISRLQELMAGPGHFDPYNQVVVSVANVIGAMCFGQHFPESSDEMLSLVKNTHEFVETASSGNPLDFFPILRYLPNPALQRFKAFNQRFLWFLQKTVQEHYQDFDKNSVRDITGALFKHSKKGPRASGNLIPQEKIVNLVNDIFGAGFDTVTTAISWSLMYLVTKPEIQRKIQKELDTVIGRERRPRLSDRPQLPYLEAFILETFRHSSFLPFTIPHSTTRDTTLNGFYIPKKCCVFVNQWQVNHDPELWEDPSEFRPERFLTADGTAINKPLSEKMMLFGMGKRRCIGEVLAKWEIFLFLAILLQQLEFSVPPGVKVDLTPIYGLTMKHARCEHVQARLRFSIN

CYP2D6 = CYP2D6 (Homo sapiens, UniProt P10635); assay: Inhibition of CYP2D6 (unknown origin) assessed as reduction in bufuralol hydroxylation to […] at 10 uM; format: ADME; conditions: probe bufuralol
Chain of CYP2D6 (P10635 whole entry): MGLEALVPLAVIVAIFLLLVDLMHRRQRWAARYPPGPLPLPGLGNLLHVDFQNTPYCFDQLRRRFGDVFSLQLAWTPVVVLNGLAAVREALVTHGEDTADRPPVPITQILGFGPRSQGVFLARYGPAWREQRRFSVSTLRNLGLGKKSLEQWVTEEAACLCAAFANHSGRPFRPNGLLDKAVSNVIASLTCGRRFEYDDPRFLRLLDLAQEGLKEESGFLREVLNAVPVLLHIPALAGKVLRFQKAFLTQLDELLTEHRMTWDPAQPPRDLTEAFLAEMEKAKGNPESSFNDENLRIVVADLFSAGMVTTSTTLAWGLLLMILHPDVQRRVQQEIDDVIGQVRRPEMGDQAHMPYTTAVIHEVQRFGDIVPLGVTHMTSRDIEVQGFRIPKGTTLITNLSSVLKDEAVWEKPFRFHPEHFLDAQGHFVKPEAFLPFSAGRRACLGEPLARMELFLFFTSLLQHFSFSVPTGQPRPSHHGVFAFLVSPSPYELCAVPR

PC-3 [11] = assay: cells; conditions: Homo sapiens, PC-3, 24 h, read-out: INH; remark: listed apart in the source
CYP3A4 = CYP3A4 (Homo sapiens, UniProt P08684); assay: Inhibition of CYP3A4 (unknown origin) assessed as reduction in midazolam hydroxylation to 1'-Hydroxymidazolam at 10 uM; format: ADME; conditions: probe midazolam
Chain of CYP3A4 (P08684 whole entry): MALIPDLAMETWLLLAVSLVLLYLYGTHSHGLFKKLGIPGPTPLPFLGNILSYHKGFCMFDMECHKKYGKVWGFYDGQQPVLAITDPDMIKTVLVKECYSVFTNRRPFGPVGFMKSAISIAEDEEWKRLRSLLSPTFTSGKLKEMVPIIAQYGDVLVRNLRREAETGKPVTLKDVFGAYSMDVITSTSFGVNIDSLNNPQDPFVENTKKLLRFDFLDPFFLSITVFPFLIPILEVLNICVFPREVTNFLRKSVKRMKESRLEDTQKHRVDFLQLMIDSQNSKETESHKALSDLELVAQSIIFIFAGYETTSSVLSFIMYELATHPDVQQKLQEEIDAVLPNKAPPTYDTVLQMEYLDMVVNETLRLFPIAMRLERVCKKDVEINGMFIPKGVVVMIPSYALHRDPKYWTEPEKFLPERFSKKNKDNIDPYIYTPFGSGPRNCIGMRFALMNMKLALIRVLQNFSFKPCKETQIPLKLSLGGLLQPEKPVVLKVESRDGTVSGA

CYP2C9 = CYP2C9 (Homo sapiens, UniProt P11712); assay: Inhibition of CYP2C9 (unknown origin) assessed as reduction in tolbutamide hydroxylation to hydrocytolbutamide at 10 uM; format: ADME
Chain of CYP2C9 (P11712 whole entry, the tested form may be a part): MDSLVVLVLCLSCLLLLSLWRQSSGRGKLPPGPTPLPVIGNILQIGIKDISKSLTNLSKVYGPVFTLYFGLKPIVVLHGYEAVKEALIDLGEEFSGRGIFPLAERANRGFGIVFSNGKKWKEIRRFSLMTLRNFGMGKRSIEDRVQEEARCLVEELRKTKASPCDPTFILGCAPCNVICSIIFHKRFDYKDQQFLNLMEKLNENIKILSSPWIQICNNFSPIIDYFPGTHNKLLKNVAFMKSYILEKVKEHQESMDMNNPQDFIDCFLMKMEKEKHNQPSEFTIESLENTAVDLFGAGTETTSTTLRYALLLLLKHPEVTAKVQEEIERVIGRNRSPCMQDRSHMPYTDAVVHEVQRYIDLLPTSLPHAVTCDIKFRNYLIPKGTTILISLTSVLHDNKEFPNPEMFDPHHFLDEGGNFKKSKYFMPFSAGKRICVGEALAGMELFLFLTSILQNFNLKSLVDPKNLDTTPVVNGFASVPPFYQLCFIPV

LIM domain kinase 1 [12] = target: T1, LIM domain kinase 1; assay: Inhibition of Limk1 (unknown origin)

T1 sequence (P53667 whole entry, the tested form may be a part): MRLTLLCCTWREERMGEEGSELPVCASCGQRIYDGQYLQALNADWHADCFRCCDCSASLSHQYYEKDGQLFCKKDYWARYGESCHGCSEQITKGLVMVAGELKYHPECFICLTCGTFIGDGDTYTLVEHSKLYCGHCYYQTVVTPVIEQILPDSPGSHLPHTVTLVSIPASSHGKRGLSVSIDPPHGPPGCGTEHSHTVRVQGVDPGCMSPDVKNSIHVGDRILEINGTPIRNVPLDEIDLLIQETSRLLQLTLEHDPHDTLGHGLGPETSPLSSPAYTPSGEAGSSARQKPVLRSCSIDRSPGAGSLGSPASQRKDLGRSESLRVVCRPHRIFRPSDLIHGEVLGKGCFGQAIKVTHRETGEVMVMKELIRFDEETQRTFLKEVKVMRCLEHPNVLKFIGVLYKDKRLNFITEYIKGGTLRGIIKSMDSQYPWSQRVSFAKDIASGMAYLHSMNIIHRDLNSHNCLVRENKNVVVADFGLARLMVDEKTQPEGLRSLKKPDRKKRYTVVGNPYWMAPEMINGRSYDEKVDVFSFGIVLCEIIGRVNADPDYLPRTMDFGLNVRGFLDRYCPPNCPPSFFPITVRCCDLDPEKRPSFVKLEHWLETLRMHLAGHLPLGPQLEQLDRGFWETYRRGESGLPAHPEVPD

Vd [1] [L/kg]	bioavailability [2] [%]	t1/2 (Liver microsome [5]) [min]	t1/2 (Liver microsome [6]) [min]	Structure (SMILES)	inhibition at 10 µM (CYP1A2) [%]	inhibition at 10 µM (CYP2D6) [%]	further results
0.3	0			Cc1c[nH]c2ncnc(-c3ccc(NC(=O)Nc4cccc(C(=O)NC(C)C)c4)cc3)c12			
				CC(C)NC(=O)c1cccc(NC(=O)Nc2ccc(-c3ccnc4[nH]ccc34)cc2)c1			IC50 (LIM domain kinase 1 [3]): > 10000 nM
0.7	0	55	27	Cc1c[nH]c2ncnc(-c3ccc(NC(=O)Nc4cccc(C(=O)NC(C)C)c4)c(F)c3)c12			IC50 (LIM domain kinase 1 [4]): 4000 nM
				CC(C)NC(=O)c1cccc(NC(=O)Nc2ccc(-c3ncnc4[nH]cnc34)cc2)c1			IC50 [7]: 5570 nM; IC50 (LIM domain kinase 1 [3]): 1530 nM
		> 120	47	Cc1[nH]c2ncnc(-c3ccc(NC(=O)Nc4cccc(C(=O)NC(C)C)c4)cc3)c2c1C			
0.5	16			Cc1c[nH]c2ncnc(-c3ccc(NC(=O)Nc4ccccc4)cc3)c12			
0.4	36	30	87	Cc1c[nH]c2ncnc(-c3ccc(NC(=O)N(CCO)c4ccccc4)cc3)c12	-16	5	inhibition at 1 µM (PC-3 [8]): 76%; inhibition at 0.1 µM (PC-3 [9]): 16.5%; inhibition at 1 µM (PC-3 [10]): 74%; inhibition at 10 µM (PC-3 [11]): 77.5%
0.5	20	73	> 120	Cc1c[nH]c2ncnc(-c3ccc(NC(=O)N(CCO)c4ccc(Cl)cc4)cc3)c12	-12	4	IC50 (LIM domain kinase 1 [4]): 118 nM
				COc1ccccc1N(CCO)C(=O)Nc1ccc(-c2ncnc3[nH]cc(C)c23)cc1			IC50 [7]: > 10000 nM
		21	38	COc1cccc(N(CCO)C(=O)Nc2ccc(-c3ncnc4[nH]cc(C)c34)cc2)c1	3	3	
0.3	24	40	56	COc1ccc(N(CCO)C(=O)Nc2ccc(-c3ncnc4[nH]cc(C)c34)cc2)cc1	-8	-4	inhibition at 10 µM (CYP3A4): 2%; inhibition at 10 µM (CYP2C9): 8%
6	0			COc1ccc(N(CCN)C(=O)Nc2ccc(-c3ncnc4[nH]cc(C)c34)cc2)cc1			
4	0			Cc1c[nH]c2ncnc(-c3ccc(NC(=O)N(CCN)c4ccc(Cl)cc4)cc3)c12			
17.1	0			Cc1c[nH]c2ncnc(-c3ccc(NC(=O)N(CCN(C)C)c4ccc(Cl)cc4)cc3)c12			
		> 120	> 120	Cc1[nH]c2ncnc(-c3ccc(NC(=O)N(CCN)c4ccc(Cl)cc4)c(F)c3)c2c1C			inhibition at 10 µM (CYP3A4): -11%
1.5		23	19	Cc1[nH]c2ncnc(-c3ccc(NC(=O)N(CCN(C)C)c4ccc(Cl)cc4)c(F)c3)c2c1C		20	IC50 (LIM domain kinase 1 [4]): 320 nM; inhibition at 10 µM (CYP3A4): -9%; inhibition at 10 µM (CYP2C9): -23%
1.2		13		COCCN(C(=O)Nc1ccc(-c2ncnc3[nH]c(C)c(C)c23)cc1F)c1ccc(Cl)cc1			IC50 (LIM domain kinase 1 [4]): 250 nM; inhibition at 10 µM (CYP2C9): 50%
				COc1ccc(NC(=O)N(CCN2CCCC2)c2ccc(-c3ncnc4[nH]cc(C)c34)cc2)cc1			IC50 (LIM domain kinase 1 [3]): 9240 nM
				COc1ccc(NC(=O)N(CCN2CCCCC2)c2ccc(-c3ncnc4[nH]cc(C)c34)cc2)cc1			IC50 (LIM domain kinase 1 [3]): > 10000 nM
				COc1c(C=O)c(O)cc2c1C(=O)c1ccccc1C2=O [DAMNACANTHAL]			IC50 (LIM domain kinase 1 [12]): 800 nM

Structure (SMILES)	Vd [1] [L/kg]	bioavailability [2] [%]	t1/2 (Liver microsome [5]) [min]	t1/2 (Liver microsome [6]) [min]	inhibition at 10 µM (CYP1A2) [%]	inhibition at 10 µM (CYP2D6) [%]	further results
Cc1c[nH]c2ncnc(-c3ccc(NC(=O)N(CCO)c4ccc(F)cc4)cc3)c12			52	44	-4	3	
Cc1c[nH]c2ncnc(-c3ccc(NC(=O)N(CCO)c4ccccc4Cl)cc3)c12	0.7	21	38		-4	1	IC50 (LIM domain kinase 1 [4]): 420 nM; inhibition at 1 µM (PC-3 [8]): 83%; inhibition at 0.1 µM (PC-3 [9]): 13%; inhibition at 1 µM (PC-3 [10]): 76.1%; inhibition at 10 µM (PC-3 [11]): 81%
Cc1c[nH]c2ncnc(-c3ccc(NC(=O)N(CCO)c4cccc(Cl)c4)cc3)c12			20	22	-19	2	IC50 (LIM domain kinase 1 [4]): 372 nM
Cc1ccc(N(CCO)C(=O)Nc2ccc(-c3ncnc4[nH]cc(C)c34)cc2)cc1	0.3	24	39	56	-5	-4	inhibition at 10 µM (CYP3A4): 5%
Cc1[nH]c2ncnc(-c3ccc(NC(=O)N(CCO)c4ccc(Cl)cc4)c(F)c3)c2c1C	0.5	29	44	99	40	8	

Reference: ChEMBL document CHEMBL3407489, “Bis-aryl urea derivatives as potent and selective LIM kinase (Limk) inhibitors” (J Med Chem, 2015)
